Where “and” joins values, the source holds several entries; their conditions need not be identical. Equal values may be shown once. Inconclusive results and toxic doses are left out.
System: P388 leukemia ip, CD2F1 mice, survival T/C
Assay: NCI In Vivo Anticancer Drug Screen. Data for tumor model P388 Leukemia (intraperitoneal) in CD2F1 (CDF1) mice
Conditions: endpoint: median survival time, higher = longer survival
In short: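 Mice carrying the transplanted tumor received test compound or vehicle. Survival was recorded in each group, and the value is the treated-group measurement divided by that of the vehicle-treated control group.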

[1] = dose: 50.0 mg/kg/injection, schedule: Q01DX009 (ip), vehicle: saline with Tween-80
[2] = dose: 100.0 mg/kg/injection, schedule: Q01DX009 (ip), vehicle: saline with Tween-80
[3] = dose: 200.0 mg/kg/injection, schedule: Q01DX009 (ip), vehicle: saline with Tween-80
[4] = dose: 50.0 mg/kg/injection, schedule: Q01DX005 (ip), vehicle: saline with Tween-80
[5] = dose: 100.0 mg/kg/injection, schedule: Q01DX005 (ip), vehicle: saline with Tween-80
[6] = dose: 200.0 mg/kg/injection, schedule: Q01DX005 (ip), vehicle: saline with Tween-80

**Q.** How did the T/C (dose: 8.0 mg/kg/injection, schedule: Q04DX003 (ip), vehicle: DMSO) turn out when `COc1cccc2c1C(=O)c1c(O)c3c(c(O)c1C2=O)CC(O)(C(=O)CO)CC3OC1CC(N)C(O)C(C)O1.[Cl][Pt+2][Cl].[NH2-].[NH2-]` (stereo unspecified) was run?
**A.** 171 % of control and 182 % of control

**Q.** What about the T/C (dose: 16.0 mg/kg/injection, schedule: Q04DX003 (ip), vehicle: DMSO) of the same compound?
**A.** 174 % of control and 193 % of control

**Q.** What about the T/C (dose: 32.0 mg/kg/injection, schedule: Q04DX003 (ip), vehicle: DMSO) of the same compound?
**A.** 118 % of control

**Q.** What about the T/C (dose: 64.0 mg/kg/injection, schedule: Q04DX003 (ip), vehicle: DMSO) of the same compound?
**A.** 100 % of control

**Q.** Which T/C (dose: 3.12 mg/kg/injection, schedule: Q01DX005 (ip), vehicle: saline) does the source give for `CN(C)c1ccc(N)c(N)c1` here?
**A.** 99 % of control

**Q.** What about the T/C (dose: 6.25 mg/kg/injection, schedule: Q01DX005 (ip), vehicle: saline) of the same compound?
**A.** 99 % of control

**Q.** What about the T/C (dose: 12.5 mg/kg/injection, schedule: Q01DX005 (ip), vehicle: saline) of the same compound?
**A.** 103 % of control

**Q.** And the T/C (dose: 25.0 mg/kg/injection, schedule: Q01DX005 (ip), vehicle: saline)?
**A.** 105 % of control and 106 % of control

**Q.** And the T/C (dose: 100.0 mg/kg/injection, schedule: Q01DX009 (ip), vehicle: saline)?
**A.** 98 % of control

**Q.** Which results are given for `COC1/C=C/OC2(C)Oc3c(C)c(O)c4c(c3C2=O)C(=O)C=C(NC(=O)/C(C)=C\C=C\C(C)C2OC(C)(C)OC(C2C)C(C)C(OC(C)=O)C1C)C4=O` (stereo unspecified)?
**A.** T/C [1]: 106 % of control; T/C [2]: 113 % of control; T/C [3]: 117 % of control

**Q.** For `COc1ccc2c3c1OC1C(O)C=CC4C(C2O)N(C)CCC341` (stereo unspecified), which T/C (dose: 50.0 mg/kg/injection, schedule: Q01DX005 (ip), vehicle: saline + Tween-80 + alcohol) is on record?
**A.** 100 % of control

**Q.** And the T/C (dose: 100.0 mg/kg/injection, schedule: Q01DX005 (ip), vehicle: saline + Tween-80 + alcohol)?
**A.** 100 % of control

**Q.** And the T/C (dose: 200.0 mg/kg/injection, schedule: Q01DX005 (ip), vehicle: saline + Tween-80 + alcohol)?
**A.** 100 % of control

**Q.** Which T/C [4] does the source give for `CCOC(=O)Nc1ccc2c(c1[N+](=O)[O-])c1cc([N+](=O)[O-])cc([N+](=O)[O-])c1n2CC` here?
**A.** 98 % of control

**Q.** And the T/C [5]?
**A.** 90 % of control

**Q.** What about the T/C [6] of the same compound?
**A.** 86 % of control

**Q.** `c1ccc2c(c1)Nc1ncccc1S2` was tested. Which T/C [1] did it give?
**A.** 99 % of control and 94 % of control

**Q.** What about the T/C [2] of the same compound?
**A.** 92 % of control and 95 % of control

**Q.** And the T/C [3]?
**A.** 107 % of control and 92 % of control

**Q.** And the T/C (dose: 400.0 mg/kg/injection, schedule: Q01DX009 (ip), vehicle: saline with Tween-80)?
**A.** 108 % of control

**Q.** For `Cc1cc(NS(=O)(=O)c2ccc(N=c3c4ccccc4n(Cc4ccccc4)c4ccccc34)cc2)no1`, which T/C [4] is on record?
**A.** 98 % of control

**Q.** And the T/C [5]?
**A.** 97 % of control

**Q.** What about the T/C [6] of the same compound?
**A.** 88 % of control

**Q.** How did the T/C (dose: 100.0 mg/kg/injection, schedule: Q01DX001 (ip), vehicle: Klucel (hydroxypropylcellulose) (HPC)) turn out when `COc1cc(CO)c(I)c(OC)c1OC` was run?
**A.** 99 % of control

**Q.** What about the T/C (dose: 200.0 mg/kg/injection, schedule: Q01DX001 (ip), vehicle: Klucel (hydroxypropylcellulose) (HPC)) of the same compound?
**A.** 97 % of control

**Q.** What does the source list for `CCC1(c2ccc(N)cc2)CCC(=O)NC1=O` (stereo unspecified)?
**A.** T/C (dose: 50.0 mg/kg/injection, schedule: Q01DX005 (ip), vehicle: Klucel (hydroxypropylcellulose) (HPC)): 91 % of control; T/C (dose: 100.0 mg/kg/injection, schedule: Q01DX005 (ip), vehicle: Klucel (hydroxypropylcellulose) (HPC)): 100 % of control

**Q.** What does the source list for `CN1CCc2cc3c(cc2C(=O)Cc2ccc4c(c2C1)OCO4)OCO3`?
**A.** T/C (dose: 25.0 mg/kg/injection, schedule: Q04DX003 (ip), vehicle: saline with Tween-80): 95 % of control; T/C (dose: 50.0 mg/kg/injection, schedule: Q04DX003 (ip), vehicle: saline with Tween-80): 90 % of control; T/C (dose: 100.0 mg/kg/injection, schedule: Q04DX003 (ip), vehicle: saline with Tween-80): 90 % of control

**Q.** How did the T/C (dose: 60.0 mg/kg/injection, schedule: Q01DX005 (ip), vehicle: saline with Tween-80) turn out when `O=C(Nc1cc(Cl)cc(Cl)c1)OCCCl` was run?
**A.** 100 % of control

**Q.** What about the T/C (dose: 120.0 mg/kg/injection, schedule: Q01DX005 (ip), vehicle: saline with Tween-80) of the same compound?
**A.** 98 % of control

**Q.** And the T/C (dose: 240.0 mg/kg/injection, schedule: Q01DX005 (ip), vehicle: saline with Tween-80)?
**A.** 91 % of control

**Q.** How did the T/C (dose: 50.0 mg/kg/injection, schedule: Q01DX005 (ip), vehicle: saline) turn out when `CC(=O)/C(=C\C=C\c1ccccc1)C(=O)CCN(C)C` was run?
**A.** 98 % of control

**Q.** What about the T/C (dose: 100.0 mg/kg/injection, schedule: Q01DX005 (ip), vehicle: saline) of the same compound?
**A.** 109 % of control

**Q.** And the T/C (dose: 200.0 mg/kg/injection, schedule: Q01DX005 (ip), vehicle: saline)?
**A.** 118 % of control

**Q.** For `COc1ccc(Cc2cc3c(cc2OCCO)OCO3)cc1`, which T/C [4] is on record?
**A.** 105 % of control

**Q.** What about the T/C [5] of the same compound?
**A.** 103 % of control

**Q.** And the T/C [6]?
**A.** 109 % of control
